{"source": "patent US20030181659A1", "about": "“Thrombopoietin receptor modulating peptide” (priority 2000, published 2003)", "key": {"[1]": {"molecular_target": "T1, TPO-R (Homo sapiens, UniProt P40238)", "T1 construct": "endogenous in cells; host or cells: TF-1 cells", "T1 sequence (P40238 26-635)": "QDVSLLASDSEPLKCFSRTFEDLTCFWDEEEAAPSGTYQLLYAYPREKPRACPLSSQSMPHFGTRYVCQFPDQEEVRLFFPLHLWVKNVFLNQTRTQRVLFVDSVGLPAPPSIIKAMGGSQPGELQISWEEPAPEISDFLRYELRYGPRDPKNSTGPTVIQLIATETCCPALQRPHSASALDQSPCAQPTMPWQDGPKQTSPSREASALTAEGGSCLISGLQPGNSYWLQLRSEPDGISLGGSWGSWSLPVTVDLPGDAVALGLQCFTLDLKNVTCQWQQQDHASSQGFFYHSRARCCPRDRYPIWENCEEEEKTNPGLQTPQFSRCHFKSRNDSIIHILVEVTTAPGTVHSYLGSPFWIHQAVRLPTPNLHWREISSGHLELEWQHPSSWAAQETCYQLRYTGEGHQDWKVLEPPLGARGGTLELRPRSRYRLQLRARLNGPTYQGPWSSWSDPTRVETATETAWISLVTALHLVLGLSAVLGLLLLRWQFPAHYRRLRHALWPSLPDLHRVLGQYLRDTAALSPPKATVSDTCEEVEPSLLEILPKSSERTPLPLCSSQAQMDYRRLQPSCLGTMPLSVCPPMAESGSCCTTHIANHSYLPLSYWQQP", "assay": "In vitro signalling assay, dose response (STAT5 phosphorylation)", "format": "cell-based", "conditions": "dose response 0.3 nM to 30 μM", "method": "(§1) Treatment of the cells: TF-1 cells were grown to an approximate density of 1×10^6 cells in RPMI 1640 media with 1× Penicillin/Streptomycin, 2 mM glutamin, 10% fetal bovine serum (Hyclone) and 1 ng/ml GM-CSF, centrifuged down and resuspended in media with 3% serum and no GM-CSF. The cells were starved for 14-18 hours at 37° C. (5% CO2), spun down and resuspended at a density of 1×10^6 cells/ml in a medium without serum and GM-CSF. 2 ml of cell suspension was treated with the oligopeptide or TPO (as indicated per experiment) at 37° C. for 30 min. (5% CO2). 10 ml of ice-cold cell wash buffer was added per Falcon tube and centrifuged down quickly at 4° C. and 3000 rpm,. The medium was carefully aspirated and the wash repeated twice with PBS.\nThe following steps were performed on ice. The medium was aspirated and 0.6 ml of 2× lysis buffer per tube was added. This was pipetted up and down and transferred to Eppendorf tubes, placed on ice for circa 30 min., and centrifuged at 14,000×g for 10 min. The supernatant (lysate) was used in immunoprecipitations.\nImmunoprecipitations: 20-40 μL of GammaBind G Sepharose slurry was used per immunoprecipitation. The protein G beads were washed several times with 0.5× lysis buffer in Eppendorf tubes and 1-4 μg of PY-99 antibody (Santa Cruz-Biotechnology) was added per immunoprecipitation. The tubes were incubated with end-over-end rotation for 2 h at room temperature. The lysate was added and the tubes further incubated with end-over-end rotation overnight at 4° C. The beads were washed 3 times with 1× lysis buffer and once with 0.5 M Tris pH 6.5. 50 μl of SDS-sample buffer was added and the samples were boiled for 3 min prior to being applied to the gels.\nWestern blot analysis: about 10 μl/sample was run on a 8% Polyacrylamide mini gel, transferred to PVDF membrane (Millipore), blocked for 1 h in blocking buffer and incubated with αSTAT5 antibody (Santa Cruz-Biotechnology) overnight at 4° C. in an 1:1000 dilution. The membrane was washed, incubated with appropriate alkaline phosphatase conjugated secondary antibody, 1:2000 dilution at room temperature for 2 h. The PVDF-membrane was washed with Blotto and developed with NBT/BCIP (Cappel).\nDose-response curves of the present oligopeptides were performed and their activity was compared to the wild type TPO-Rp.\nPeptide dose response activity was evaluated primarily by in vitro signalling assays. Phosphorylation and thus activation of STAT5, a substrate of JAK2 kinase that is activated by TPO-Rp signal transduction, was measured. Each oligopeptide activity was addressed through a broad range of concentrations. Peptides were tested at concentrations of 0.3, 3, 10, 30 nM and 0.1, 0.3, 3 and 30 μM TPO-Rp. Oligopeptide activity as a measurement of STAT5 phosphorylation in each experiment was compared to activity obtained with 10 ng/ml of TPO, a hormone concentration that gives a maximal activation and signalling through TPO-R. All the peptides were evaluated four to five times in independent experiments. All the data was collected, Western blots were scanned and the intensity of the STAT5 phosphorylation was quantified.\nThe activity of each oligopeptide was addressed as percent of its maximum activity; thus 100% activity was assigned to the value of STAT5 protein phosphorylation obtained with 30 μM oligopeptide concentration."}, "[2]": {"system": "carboplatin treated mice", "format": "in vivo", "conditions": "for effects on other blood components: mouse, in vivo", "excerpt": "The model used for the in vivo experiments was reported previously (Akahori et al. (1996) Stem Cells 14:678-689, Akahori et al. (1996) Br. J. Haematol. 94:722-728, Shibuya et al. (1998) Blood 91:37-45, Andrews et al. (1996) Stem Cells 14:661-677). Improvements and modifications that were introduced are indicated below.\nEach test group (PBS, TPO, or TPO-Rp) was given as a single daily dose administered by intraperitoneal injection. Daily doses were begun on day 0 and continued throughout the duration of the experimental period (day 10). Two i.p. injections of carboplatin 90 mg/kg each (PBS for group 11) were given on days 0 and 4.\n(§2) Blood collections were taken on days −0 (basal), 8, 11, 14, and 18. Blood was obtained by sampling from the tail of mice (8 week old male C57BL/6Y mice), followed by cauterisation. A volume of 80 μl of blood from each mouse was collected into a heparinized blood collection tube. The 80 μl of blood was then mixed with 160 μl of saline containing sufficient EDTA (0.225%) to provide for anticoagulation.\n[…] Carboplatin is used to induce thrombocytopenia. In order to work with a model that is as similar as possible to clinical situations, a previously reported carboplatin model (Akahori et al. (1996) Stem Cells 14:678-689, Akahori et al. (1996) Br. J. Haematol. 94:722-728, Shibuya et al. (1998) Blood 91:37-45, Andrews et al. (1996) Stem Cells 14:661-677) has been carefully studied and modified accordingly. Additionally, a method for animal bleeds has been carefully studied, in order to work with animals that show the highest response to a given drug and which are at the same time under a minimum of stress (see Methods above). Thus, the dose of carboplatin has been increased to 180 mg/kg and was given by two intraperitoneal (i.p) injections on day 0 (half-dose) and day 4 (second half-dose). Carboplatin induced severe thrombocytopenia on day eight."}, "[3]": {"molecular_target": "T1, TPO-R", "assay": "In vitro signalling assay (STAT5 phosphorylation in TF-1 cells) of stored peptide samples", "format": "cell-based", "conditions": "day 30, solution in water stored at −20° C.", "method": "as §1\nThe following steps were performed on ice. The medium was aspirated and 0.6 ml of 2× lysis buffer per tube was added. […]\nThe activity of the oligopeptides of the present invention and wild type TPO-Rp was examined by in vitro signalling assays. […] Phosphorylation and thus activation of STATS, a substrate of JAK2 kinase that is activated by TPO-R signal transduction, was measured. […] All the peptides were evaluated three to four times in independent experiments. All the data were collected, Western blots were scanned, and intensity of the STAT5 phosphorylation was quantified."}, "[4]": {"system": "carboplatin treated mice", "assay": "Carboplatin (200 mg/kg) induced thrombocytopenia in mice", "format": "in vivo", "conditions": "for platelet number: carboplatin 200 mg/kg", "method": "Each test group was given a single daily dose administered by intraperitoneal injection. Daily doses were begun on day 0 and continued throughout the duration of the experimental period (day 13). Minimal doses were given on indicated days: 0 and 4; 0, 4 and 8; 0, 4, 8 and 12; days 8 through 14. Two i.p. injections of carboplatin 100 mg/kg were given on days 0 and 4.\nas §2, with “days 0” for “days −0”, “11, 14” for “11, 14,”, “18. Blodd” for “18. Blood”, “the tails” for “the tail”, “male C57BL/6J mice)” for “male C57BL/6Y mice),”\nThe dose of carboplatin has been increased to 200 mg/kg and was given as a cumulative dose by two intraperitoneal (i.p.) injections on day 0 (half-dose) and day 4 (second half-dose). Carboplatin induced severe thrombocytopenia on day eleven."}, "[5]": {"molecular_target": "thrombopoietin receptor (TPO-R) on TF-1 cells (UniProt P40238)", "assay": "cell-based or functional assay"}}, "note": "Read-outs that look alike come from different tables or passages of the source. Where a SMILES comes first, the peptide text is derived from it."}
{"compound": "CC(C)C[C@H](NC(=O)[C@H](CCC(N)=O)NC(=O)[C@H](CC(C)C)NC(=O)[C@H](CCCNC(=N)N)NC(=O)[C@H](Cc1ccc(O)cc1)NC(=O)[C@H](CCCNC(=N)N)NC(=O)[C@H](CO)NC(=O)[C@H](C)NC(=O)[C@@H]1CCCN1C(=O)[C@H](C)NC(=O)[C@H](CC(C)C)NC(=O)[C@H](CCC(=O)O)NC(=O)[C@H](CC(C)C)NC(=O)[C@@H](NC(=O)CN)[C@@H](C)O)C(=O)O", "note": "[SEQ ID No. 4] (H-GTLELAPASRYRLQL-OH; N-terminus and C-terminus assumed)", "values": [{"measurement": "activity compared to wild type TPO-Rp (STAT5 phosphorylation)", "setting": "[1]", "result": "retained activity comparable to wild type TPO-Rp"}, {"measurement": "effect on platelet levels / thrombocytopenia", "setting": "[2]; dose not given, carboplatin 180 mg/kg", "result": "some effect on platelet levels"}, {"measurement": "effects on other blood components", "setting": "[2]", "result": "None of the peptides used"}]}
{"compound": "CC(C)C[C@H](NC(=O)[C@H](CCCNC(=N)N)NC(=O)[C@H](C)NC(=O)[C@H](CCCNC(=N)N)NC(=O)[C@H](CC(C)C)NC(=O)[C@H](CCC(N)=O)NC(=O)[C@H](CC(C)C)NC(=O)[C@H](CCCNC(=N)N)NC(=O)[C@H](Cc1ccc(O)cc1)NC(=O)[C@H](CCCNC(=N)N)NC(=O)[C@H](CO)NC(=O)[C@H](CCCNC(=N)N)NC(=O)[C@@H]1CCCN1C(=O)[C@H](CCCNC(=N)N)NC(=O)[C@H](CC(C)C)NC(=O)[C@H](CCC(=O)O)NC(=O)[C@H](CC(C)C)NC(=O)[C@@H](NC(=O)CNC(=O)CNC(=O)[C@H](CCCNC(=N)N)NC(=O)[C@H](C)N)[C@@H](C)O)C(=O)N[C@@H](CC(N)=O)C(=O)O", "note": "[TPO-Rp wild type, ARGGTLELRPRSRYRLQLRARLN] (H-ARGGTLELRPRSRYRLQLRARLN-OH; N-terminus and C-terminus assumed)", "values": [{"measurement": "platelet (thrombocyte) number, percent change from basal", "setting": "[2]; 30 μg/kg/day i.p. daily from day 0, carboplatin 180 mg/kg", "result": "significantly increased the thrombocyte number"}, {"measurement": "platelet (thrombocyte) number, percent change from basal", "setting": "[2]; 300 μg/kg/day i.p. daily from day 0, carboplatin 180 mg/kg", "result": "significantly increased the thrombocyte number"}, {"measurement": "survival rate of treated animals", "setting": "[2]; CHI-square analysis, carboplatin 180 mg/kg", "result": "statistically significant survival rate"}, {"measurement": "effects on other blood components", "setting": "[2]", "result": "None of the peptides used"}, {"measurement": "activity (STAT5 phosphorylation) after storage", "setting": "[3]", "result": "significant decrease in activity"}]}
{"compound": "SEQ ID No. 1: oligopeptide A1-L18 of wild type TPO-Rp, 18 amino acids, without R9A, R11A substitutions (ARGGTLELRPRSRYRLQL; listed as Homo sapiens)", "values": [{"measurement": "activity compared to wild type TPO-Rp (STAT5 phosphorylation)", "setting": "[1]", "result": "activity comparable to the wild type TPO-Rp"}]}
{"compound": "SEQ ID No. 3: shortest oligopeptide, 15 amino acids long, G4-L18 of wild type TPO-Rp (GTLELRPRSRYRLQL; listed as Homo sapiens)", "values": [{"measurement": "activity compared to wild type TPO-Rp (STAT5 phosphorylation)", "setting": "[1]", "result": "retained activity comparable to wild type TPO-Rp"}]}
{"compound": "SEQ ID No. 5: oligopeptide G4-R21 of wild type TPO-Rp (GTLELRPRSRYRLQLRAR; listed as Homo sapiens)", "values": [{"measurement": "activity compared to wild type TPO-Rp (STAT5 phosphorylation)", "setting": "[1]", "result": "activity identical to wild type TPO-Rp"}]}
{"compound": "SEQ ID No. 6: oligopeptide G4-R21 of wild type TPO-Rp, R9A, R11A form (GTLELAPASRYRLQLRAR; listed as Homo sapiens)", "values": [{"measurement": "activity compared to wild type TPO-Rp (STAT5 phosphorylation)", "setting": "[1]", "result": "activity identical to wild type TPO-Rp"}]}
{"compound": "TPO: thrombopoietin, natural hormone, glycoprotein ligand of c-mpl (TPO-R)", "values": [{"measurement": "platelet number", "setting": "[4]; 2.4 μg/kg/day days 0 through 13", "result": "again unable to protect decrease in platelets"}, {"measurement": "platelet number", "setting": "[4]; 10 μg/kg/day days 0 through 13", "result": "some effect that does have statistical significance"}, {"measurement": "effect on thrombocytopenia", "setting": "[4]; 10 μg/kg/day from day 8 through 14, carboplatin from day 0", "result": "did not show a significant effect on thrombocytopenia"}, {"measurement": "platelet number", "setting": "[2]; 2.4 μg/kg/day i.p. daily, carboplatin 180 mg/kg", "result": "unable to prevent a decrease in platelets"}]}
{"compound": "thrombopoietin (TPO) (from UniProt P40225 22-353) (ligand)", "values": [{"measurement": "STAT5 phosphorylation in TF-1 cells; TPO concentration giving maximal activation", "setting": "[5]", "result": 10, "unit": "ng/mL"}]}
